Data: US20260327246A1, “FUSED RING KRAS INHIBITORS FOR TREATING DISEASE” (BLOSSOMHILL THERAPEUTICS, INC., priority 2023, published 2026)

Key:
GP2D (KRAS G12D) = assay: Cell Proliferation Assay (CellTiter-Glo 2.0), GP2D; assay type: cell-based; conditions: GP2D (KRAS G12D) cells; 72 hours at 37° C., 5% CO2; read-out: Anti-proliferation IC50, GP2D (KRAS G12D)
Procedure: (§1) Two thousand KRAS mutant cells per well are seeded in 384-well white plate and then treated with indicated compounds for 72 hours at 37° C. and 5% CO2. Cell proliferation is measured using CellTiter-Glo 2.0 luciferase-based ATP detection assay (Promega, Madison, WI) following the manufacturer's protocol. IC50 values are determined using Prism software (GraphPad Software, San Diego, CA).

SW620 (KRAS G12V) = assay: Cell Proliferation Assay (CellTiter-Glo 2.0), SW620; assay type: cell-based; conditions: Homo sapiens, SW-620; SW620 (KRAS G12V) cells; 72 hours at 37° C., 5% CO2; read-out: Anti-proliferation IC50, SW620 (KRAS G12V)
Procedure: as §1

| IC50 (SW620 (KRAS G12V)) | Compound | IC50 (GP2D (KRAS G12D)) |
| --- | --- | --- |
| 1450 nM | CCc1c(F)ccc2cc(O)cc(-c3nc4c5c(nc(OC[C@@]67CCCN6C[C@H](F)C7)nc5c3F)N3CCCCCC3CC4)c12 (stereo partly drawn) [compound 23, 5-ethyl-6-fluoro-4-(4-fluoro-2-{[(2R,7aS)-2-fluorotetrahydro-1H-pyrrolizin-7a(5H)-yl]methoxy}-7,8,8a,9,10,11,12,13-octahydro-1,3,6,13a-tetraazanaphtho[1,8-ab]heptalen-5-yl)naphthalen-2-ol] | 172 nM |
| 248 nM | C#Cc1c(F)ccc2cc(O)cc(-c3nc4c5c(nc(OC[C@@]67CCCN6C[C@H](F)C7)nc5c3F)N3CCCCCC3CC4)c12 (some centres unmarked) [compound 22] | 32 nM |
| 787 nM | C#Cc1c(F)ccc2cc(O)cc(-c3nc4c5c(nc(OC[C@@]67CCCN6C[C@H](F)C7)nc5c3F)N3CCCCC3C(C#N)C4)c12 (stereo partly drawn) [compound 28, 5-(8-ethynyl-7-fluoro-3-hydroxynaphthalen-1-yl)-4-fluoro-2-{[(2R,7aS)-2-fluorotetrahydro-1H-pyrrolizin-7a(5H)-yl]methoxy}-8,8a,9,10,11,12-hexahydro-7H-1,3,6,12a-tetraazabenzo[4,5]cyclohepta[1,2,3-de]naphthalene-8-carbonitrile] | 61 nM |
| 557 nM | CCc1c(F)ccc2cc(O)cc(-c3nc4c5c(nc(OC[C@@]67CCCN6C[C@H](F)C7)nc5c3F)N3CCOCC[C@@H]3CC4)c12 [compound 26, 5-ethyl-6-fluoro-4-[(8aS)-4-fluoro-2-{[(2R,7aS)-2-fluorotetrahydro-1H-pyrrolizin-7a(5H)-yl]methoxy}-8,8a,9,10,12,13-hexahydro-7H-11-oxa-1,3,6,13a-tetraazanaphtho[1,8-ab]heptalen-5-yl]naphthalen-2-ol] | 321 nM |
